ChEMBL document CHEMBL1201862, “PubChem BioAssay data set” (2004)
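Where inhibition never reached the appropriate level, the endpoint shown equals the highest concentration tested. Otherwise, values were interpolated linearly from a five-concentration, 48-hour dose response in 96-well plates. Here, GI50 denotes the concentration required for 50% inhibition of growth.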 Active and inactive are the calls of the source. No stated cut-off is given here; in the data, active = GI50 up to about 1.1 µM and inactive = higher.

What was measured:
Assay in all cases: NCI tumour cell line growth inhibition, 48 h
DMS-273 = system: DMS-273
SNB-19 = system: SNB-19
OVCAR-5 = system: OVCAR-5
SK-OV-3 = system: SK-OV-3
CCRF-CEM = system: CCRF-CEM
NCI-H226 = system: NCI-H226
HOP-18 = system: HOP-18
UACC-62 = system: UACC-62
OVCAR-4 = system: OVCAR-4
HCT-15 = system: HCT-15
DLD-1 = system: DLD-1
MOLT-4 = system: MOLT-4
NCI-H522 = system: NCI-H522
SK-MEL-28 = system: SK-MEL-28
HL-60 = system: HL-60
EKVX = system: EKVX
SF-295 = system: SF-295
UO-31 = system: UO-31
A498 = system: A498
COLO 205 = system: COLO 205
ACHN = system: ACHN
OVCAR-3 = system: OVCAR-3
A549 = system: A549
HT-29 = system: HT-29
KM-20L2 = system: KM-20L2
SK-MEL-5 = system: SK-MEL-5
SW-620 = system: SW-620
KM12 = system: KM12
LOX IMVI = system: LOX IMVI
SNB-75 = system: SNB-75
SR = system: SR
SK-MEL-2 = system: SK-MEL-2
M14 = system: M14
HCT-116 = system: HCT-116
HCC 2998 = system: HCC 2998
HOP-62 = system: HOP-62
Malme-3M = system: Malme-3M
RXF 393 = system: RXF 393
SF-268 = system: SF-268
RPMI-8226 = system: RPMI-8226
UACC-257 = system: UACC-257
U-251 = system: U-251
SN12C = system: SN12C
TK-10 = system: TK-10
LXFL 529 = system: LXFL 529
SNB-78 = system: SNB-78
M19-MEL = system: M19-MEL
OVCAR-8 = system: OVCAR-8
NCI-H460 = system: NCI-H460
NCI-H23 = system: NCI-H23
SF-539 = system: SF-539
HOP-92 = system: HOP-92
XF498 = system: XF498
DMS-114 = system: DMS-114
IGROV-1 = system: IGROV-1
K562 = system: K562
CAKI-1 = system: CAKI-1
786-0 = system: 786-0

C(=C\c1ccc2ccccc2c1Nc1ccccc1)/c1ccccc1
GI50 (DMS-273): 32.7 µM (inactive) | GI50 (SNB-19): 28 µM (inactive) | GI50 (OVCAR-5): > 100 µM (inactive) | GI50 (SK-OV-3): 29.8 µM (inactive) | GI50 (CCRF-CEM): 11.9 µM (inactive) | GI50 (NCI-H226): 33.2 µM (inactive) | GI50 (HOP-18): 26.4 µM (inactive) | GI50 (UACC-62): 51.9 µM (inactive) | GI50 (OVCAR-4): 8.15 µM (inactive) | GI50 (HCT-15): > 100 µM | GI50 (DLD-1): 17.3 µM (inactive) | GI50 (MOLT-4): 15.2 µM (inactive) | GI50 (NCI-H522): 41.6 µM (inactive) | GI50 (SK-MEL-28): 46 µM (inactive) | GI50 (HL-60): > 100 µM (inactive) | GI50 (EKVX): > 100 µM (inactive) | GI50 (SF-295): 41.9 µM (inactive) | GI50 (UO-31): 29.8 µM (inactive) | GI50 (A498): 18.3 µM (inactive) | GI50 (COLO 205): > 71.3 µM (inactive) | GI50 (ACHN): 20.6 µM (inactive) | GI50 (OVCAR-3): 22.4 µM (inactive) | GI50 (A549): 49.3 µM (inactive) | GI50 (HT-29): 29.6 µM (inactive) | GI50 (KM-20L2): 45.1 µM (inactive) | GI50 (SK-MEL-5): 78.3 µM (inactive) | GI50 (SW-620): 60.3 µM (inactive) | GI50 (KM12): 51.3 µM (inactive) | GI50 (LOX IMVI): > 66.4 µM (inactive) | GI50 (SNB-75): 15.7 µM (inactive) | GI50 (SR): 15.2 µM (inactive) | GI50 (SK-MEL-2): > 60.5 µM (inactive) | GI50 (M14): 18.7 µM (inactive) | GI50 (HCT-116): 17.8 µM (inactive) | GI50 (HCC 2998): > 70.5 µM (inactive) | GI50 (HOP-62): 20.1 µM (inactive) | GI50 (Malme-3M): 33.2 µM (inactive) | GI50 (RXF 393): 8.22 µM (inactive) | GI50 (SF-268): 36.2 µM (inactive) | GI50 (RPMI-8226): 25.1 µM (inactive) | GI50 (UACC-257): > 75 µM (inactive) | GI50 (U-251): 25.9 µM (inactive) | GI50 (SN12C): 33.6 µM (inactive) | GI50 (TK-10): 44.5 µM (inactive) | GI50 (LXFL 529): > 73.1 µM (inactive) | GI50 (SNB-78): 38.6 µM (inactive) | GI50 (M19-MEL): > 92.7 µM (inactive) | GI50 (OVCAR-8): 22 µM (inactive) | GI50 (NCI-H460): 27.9 µM (inactive) | GI50 (NCI-H23): 19.9 µM (inactive) | GI50 (SF-539): 32.2 µM (inactive) | GI50 (HOP-92): 18.2 µM (inactive) | GI50 (XF498): 18.4 µM (inactive) | GI50 (DMS-114): 38.8 µM (inactive) | GI50 (IGROV-1): 31 µM (inactive) | GI50 (K562): 11.9 µM (inactive) | GI50 (CAKI-1): 23.2 µM (inactive) | GI50 (786-0): 17 µM (inactive)

CC(=O)O[C@]1(C)OC(=O)[C@@H](C)N1[N+](=O)[O-]
GI50 (DMS-273): 96.6 µM (inactive) | GI50 (SNB-19): > 100 µM (inactive) | GI50 (OVCAR-5): > 100 µM (inactive) | GI50 (SK-OV-3): > 100 µM (inactive) | GI50 (CCRF-CEM): 72.8 µM (inactive) | GI50 (NCI-H226): > 100 µM (inactive) | GI50 (HOP-18): > 100 µM (inactive) | GI50 (UACC-62): > 100 µM (inactive) | GI50 (OVCAR-4): > 100 µM (inactive) | GI50 (HCT-15): > 100 µM | GI50 (DLD-1): > 100 µM (inactive) | GI50 (MOLT-4): 45.9 µM (inactive) | GI50 (NCI-H522): > 100 µM (inactive) | GI50 (SK-MEL-28): > 100 µM (inactive) | GI50 (HL-60): 32.1 µM (inactive) | GI50 (EKVX): > 100 µM (inactive) | GI50 (SF-295): > 100 µM (inactive) | GI50 (UO-31): > 100 µM (inactive) | GI50 (A498): > 100 µM (inactive) | GI50 (COLO 205): > 100 µM (inactive) | GI50 (ACHN): 60 µM (inactive) | GI50 (OVCAR-3): > 100 µM (inactive) | GI50 (A549): > 100 µM (inactive) | GI50 (HT-29): > 100 µM (inactive) | GI50 (KM-20L2): > 100 µM (inactive) | GI50 (SK-MEL-5): > 100 µM (inactive) | GI50 (SW-620): > 100 µM (inactive) | GI50 (KM12): > 100 µM (inactive) | GI50 (LOX IMVI): 72.3 µM (inactive) | GI50 (SNB-75): 57.1 µM (inactive) | GI50 (SR): 34.9 µM (inactive) | GI50 (SK-MEL-2): > 100 µM (inactive) | GI50 (M14): > 100 µM (inactive) | GI50 (HCT-116): > 100 µM (inactive) | GI50 (HCC 2998): > 100 µM (inactive) | GI50 (HOP-62): > 100 µM (inactive) | GI50 (Malme-3M): > 100 µM (inactive) | GI50 (RXF 393): > 100 µM (inactive) | GI50 (RPMI-8226): > 100 µM (inactive) | GI50 (UACC-257): > 100 µM (inactive) | GI50 (U-251): > 100 µM (inactive) | GI50 (SN12C): > 100 µM (inactive) | GI50 (TK-10): > 100 µM (inactive) | GI50 (LXFL 529): > 100 µM (inactive) | GI50 (SNB-78): > 100 µM (inactive) | GI50 (M19-MEL): > 100 µM (inactive) | GI50 (OVCAR-8): > 100 µM (inactive) | GI50 (NCI-H460): 39.2 µM (inactive) | GI50 (NCI-H23): > 100 µM (inactive) | GI50 (SF-539): > 100 µM (inactive) | GI50 (XF498): < 0.01 µM (active) | GI50 (DMS-114): > 100 µM (inactive) | GI50 (IGROV-1): > 100 µM (inactive) | GI50 (K562): > 100 µM (inactive) | GI50 (786-0): > 100 µM (inactive)

O=c1[nH]cnc(NC2C=C(CO)C(O)C2O)c1[N+](=O)[O-] (stereo unspecified)
GI50 (DMS-273): > 47.2 µM (inactive) | GI50 (SNB-19): > 100 µM (inactive) | GI50 (OVCAR-5): > 100 µM (inactive) | GI50 (SK-OV-3): > 100 µM (inactive) | GI50 (CCRF-CEM): > 71.1 µM (inactive) | GI50 (NCI-H226): > 100 µM (inactive) | GI50 (HOP-18): > 100 µM (inactive) | GI50 (UACC-62): > 100 µM (inactive) | GI50 (OVCAR-4): > 100 µM (inactive) | GI50 (HCT-15): > 40.3 µM | GI50 (DLD-1): > 58.6 µM (inactive) | GI50 (MOLT-4): > 100 µM (inactive) | GI50 (NCI-H522): > 100 µM (inactive) | GI50 (SK-MEL-28): > 100 µM (inactive) | GI50 (HL-60): > 37.2 µM (inactive) | GI50 (EKVX): > 100 µM (inactive) | GI50 (SF-295): > 100 µM (inactive) | GI50 (UO-31): > 100 µM (inactive) | GI50 (A498): > 100 µM (inactive) | GI50 (COLO 205): > 62.7 µM (inactive) | GI50 (ACHN): > 100 µM (inactive) | GI50 (OVCAR-3): > 100 µM (inactive) | GI50 (A549): > 83.2 µM (inactive) | GI50 (HT-29): > 100 µM (inactive) | GI50 (KM-20L2): > 100 µM (inactive) | GI50 (SK-MEL-5): > 100 µM (inactive) | GI50 (SW-620): > 43.2 µM (inactive) | GI50 (KM12): > 100 µM (inactive) | GI50 (LOX IMVI): > 41.2 µM (inactive) | GI50 (SNB-75): > 100 µM (inactive) | GI50 (SR): > 100 µM (inactive) | GI50 (SK-MEL-2): > 100 µM (inactive) | GI50 (M14): > 100 µM (inactive) | GI50 (HCT-116): > 37.7 µM (inactive) | GI50 (HCC 2998): > 100 µM (inactive) | GI50 (HOP-62): > 100 µM (inactive) | GI50 (Malme-3M): > 100 µM (inactive) | GI50 (RXF 393): > 100 µM (inactive) | GI50 (SF-268): > 100 µM (inactive) | GI50 (RPMI-8226): > 45.9 µM (inactive) | GI50 (UACC-257): > 100 µM (inactive) | GI50 (U-251): > 63.5 µM (inactive) | GI50 (SN12C): > 100 µM (inactive) | GI50 (TK-10): > 100 µM (inactive) | GI50 (LXFL 529): > 100 µM (inactive) | GI50 (SNB-78): > 100 µM (inactive) | GI50 (M19-MEL): > 76.6 µM (inactive) | GI50 (OVCAR-8): > 100 µM (inactive) | GI50 (NCI-H460): > 40.1 µM (inactive) | GI50 (NCI-H23): > 100 µM (inactive) | GI50 (SF-539): > 100 µM (inactive) | GI50 (HOP-92): > 100 µM (inactive) | GI50 (XF498): > 100 µM (inactive) | GI50 (DMS-114): > 51.3 µM (inactive) | GI50 (IGROV-1): > 100 µM (inactive) | GI50 (K562): > 100 µM (inactive) | GI50 (CAKI-1): > 100 µM (inactive) | GI50 (786-0): > 46.2 µM (inactive)
